# In EPA's ToxValDB 9.5 (doi:10.2903/j.efsa.2011.2417):
# Experiments:
# Anas platyrhynchos = conditions: short-term; oral; feed; mortality
# Rattus norvegicus = conditions: chronic; duration: 2 years; organ weight
# Colinus virginianus = conditions: mortality
# Canidae = conditions: oral, Dog Other, hematological
# Daphnia magna = conditions: chronic/long-term; duration: 21 days; reproduction
# Typhlodromus pyri = conditions: not reported; mortality
# Apis mellifera = conditions: acute; duration: 48 hours; oral; unspecified; mortality
# Tagia sp. = conditions: acute; mortality
compound,measurement,setting,value
CCSC(C)CC1CC(=O)C(C(CC)=NOC/C=C/Cl)=C(O)C1 (configuration not stated) [Clethodim],LC50,Anas platyrhynchos,> 851 mg/kg-day
same,NOAEL,Rattus norvegicus,16 mg/kg-day
same,LD50,"Colinus virginianus; acute, oral",> 1640 mg/kg
same,NOEL,Colinus virginianus; reproduction developmental,17 mg/kg-day
same,NOAEL,"Canidae; chronic, duration: 1 years",21 mg/kg-day
same,NOAEL,"Canidae; subchronic, duration: 90 days",21 mg/kg-day
same,NOEC,Daphnia magna,49 mg/L
same,LEL,Typhlodromus pyri,9.6 g/ha
same,LC50,"Oncorhynchus mykiss; acute, duration: 96 hours, mortality",25 µg/mL
same,NOEC,"Oncorhynchus mykiss; chronic/long-term, duration: 21 days",3.9 mg/L
same,LD50,Apis mellifera,> 43 µg/piece
same,LC50,Tagia sp.,129 mg/kg
